Test results published in US20090136514A1, “Tetracyclines for Treating Ocular Diseases and Disorders” (priority 2005, published 2009).

Assays:
[1] = system: VEGF-mediated retinal vascular damage; test: VEGF-induced retinal vascular leakage in rabbits, fundus photography and fluorescein angiography; assay type: in vivo, Dutch Belted rabbits; parameters: Leakage, mean score / Hemorrhage/Microaneurism, mean score / Edema, mean score: scale not given here; settings: for Edema, mean score / Hemorrhage/Microaneurism, mean score / Leakage, mean score / Edema, Difference (Kenalog-Doxy) / Hemorrhage/Microaneurism, Difference (Kenalog-Doxy) / Leakage, Difference (Kenalog-Doxy) / Edema, Difference (Doxy-Vehicle) / (Kenalog-Vehicle) / Hemorrhage/Microaneurism, Difference (Doxy-Vehicle) / (Kenalog-Vehicle) / Leakage, Difference (Doxy-Vehicle) / (Kenalog-Vehicle): 48 hours post-dosing; for Edema, mean score / Hemorrhage/Microaneurism, mean score / Leakage, mean score: 50 μl intravitreal before VEGF165; for Edema, Difference (Kenalog-Doxy) / Hemorrhage/Microaneurism, Difference (Kenalog-Doxy) / Leakage, Difference (Kenalog-Doxy): difference of mean scores to Doxy; for Edema, Difference (Doxy-Vehicle) / (Kenalog-Vehicle) / Hemorrhage/Microaneurism, Difference (Doxy-Vehicle) / (Kenalog-Vehicle) / Leakage, Difference (Doxy-Vehicle) / (Kenalog-Vehicle): difference of mean scores to vehicle
Experimental: Retinal vascular leakage was induced in rabbits by intravitreal injection of VEGF according to the procedures set forth in Edelman et al., Experimental Eye Research 80:249-258 (2005). The protective effect of doxycycline on VEGF-mediated retinal vascular damage was assessed. A total of 12 Dutch Belted rabbits (Covance) were anesthetized with isoflurane inhalation and topical 0.5% proparacaine hydrochloride and each eye studied (24 eyes total). Four animals received a 50 μl intravitreal injection of 0.025% bovine serum albumin (BSA) in sterile phosphate-buffered saline (PBS) (Dow Pharmaceutical Sciences) (vehicle, eight eyes total). Doxycycline was formulated from anhydrous doxycycline (Dow Pharmaceutical Sciences) and reconstituted as a saturated solution of doxycycline in 0.025% BSA in PBS assayed to be at a final doxycycline concentration of approximately 0.067 weight percent. Four animals received 50 μl of the doxycycline formulation in each eye (eight eyes total). Four animals received 50 μl of a 40 mg/mL solution of triamcinolone acetonide (Kenalog®, Bristol Myers-Squibb) in 0.025% BSA in PBS (positive control, eight eyes total). Each injection was followed by a 50 μl intravitreal injection of a 10 μg/mL solution of recombinant human VEGF165 (Vascular Endothelial Growth Factor 165 amino acid residue variant, R&D Systems) in 0.025% BSA in PBS. A 30-gauge ⅝-inch needle was used for the injections. VEGF was purchased from R&D Systems (Minneapolis, Minn.).
Prior to injections, eyes were prepared for injection with 1% tropicamide (2 drops), followed ten minutes later by phenylephrine hydrochloride 2.5% (2 drops). An ophthalmic Betadine solution was then used to moisten the eyes. […]. After five minutes, the Betadine was washed out of the eyes with sterile saline and proparacaine hydrochloride was delivered to each eye.
Animals were then anesthetized with an intravenous injection of a ketamine/xylazine cocktail (77 mg/mL ketamine, 23 mg/mL xylazine) at 0.1 mL/kg.
Vascular leakage, hemorrhage, and edema were assessed using fundus photography and fluorescein angiography (see Table 1). Rabbits were anesthetized with subcutaneous 100 mg/mL ketamine at 35 mg/kg and 100 mg/mL xylazine at 7 mg/kg, eyes were dilated with topical 1% tropicamide, and angiograms were obtained with a Topeon TRC-501X retinal camera coupled to a personal computer with IMAGEnet 2000 software (Topcon Medical Systems Inc., Paramus, N.J.). Intravenous sodium fluorescein injection (12 mg/kg) was performed 48 hours after intravitreal injection of VEGF. Late-phase angiography was performed 4-6 min after intravenous sodium fluorescein injection, […]

pre-IL-1β = pre-IL-1β cleavage by ELISA in human choroidal cultures; assay type: cell-based; settings: 0.001% to 5.0% doxycycline
diabetic retinopathy [2] = test: Oral doxycycline in patients suffering from diabetic retinopathy; assay type: in vivo, Humans; settings: 50 mg orally twice a day for eight weeks
Experimental: Ten patients suffering from diabetic retinopathy are treated with oral doxycycline 50 mg orally twice a day for eight weeks. The patients are monitored for improvement of macular edema and vascular leakage by fluorescein angiography and scanning ocular fluorophotometry. Decreased vascular leakage in response to doxycycline administration is observed, which leads to a decrease in edema and improved visual acuity.

diabetic retinopathy [3] = test: Topical doxycycline in patients suffering from diabetic retinopathy; assay type: in vivo, Humans; settings: between 0.025% and 0.1% daily for one month
Experimental: Ten patients suffering from diabetic retinopathy are treated with topical doxycycline. Two patients each are administered doxycycline at a concentration selected to be between 0.025% and 0.1% daily for one month. The patients are monitored for improvement of macular edema and vascular leakage by fluorescein angiography and scanning ocular fluorophotometry. Decreased vascular leakage in response to doxycycline administration is observed, which leads to a decrease in edema and improved visual acuity in most or all of the patients treated.

[4] = most or all of the patients treated

| SMILES | Edema, mean score ([1]; Combined Eyes) | Hemorrhage/Microaneurism, mean score ([1]; Combined Eyes) | Leakage, mean score ([1]; Combined Eyes) | Edema, Difference (Doxy-Vehicle) / (Kenalog-Vehicle) ([1]; Combined Eyes) | Hemorrhage/Microaneurism, Difference (Doxy-Vehicle) / (Kenalog-Vehicle) ([1]; Combined Eyes) | Leakage, Difference (Doxy-Vehicle) / (Kenalog-Vehicle) ([1]; Combined Eyes) | Edema, mean score ([1]; Left Eye) | Hemorrhage/Microaneurism, mean score ([1]; Left Eye) | Leakage, mean score ([1]; Left Eye) | Edema, Difference (Doxy-Vehicle) / (Kenalog-Vehicle) ([1]; Left Eye) | Hemorrhage/Microaneurism, Difference (Doxy-Vehicle) / (Kenalog-Vehicle) ([1]; Left Eye) | Leakage, Difference (Doxy-Vehicle) / (Kenalog-Vehicle) ([1]; Left Eye) | Edema, mean score ([1]; Right Eye) | Hemorrhage/Microaneurism, mean score ([1]; Right Eye) | Leakage, mean score ([1]; Right Eye) | Edema, Difference (Doxy-Vehicle) / (Kenalog-Vehicle) ([1]; Right Eye) | Hemorrhage/Microaneurism, Difference (Doxy-Vehicle) / (Kenalog-Vehicle) ([1]; Right Eye) | Leakage, Difference (Doxy-Vehicle) / (Kenalog-Vehicle) ([1]; Right Eye) | Edema ([1]; combined eyes) | Hemorrhage/microaneurism ([1]; combined eyes) | also measured |
| --- | --- | --- | --- | --- | --- | --- | --- | --- | --- | --- | --- | --- | --- | --- | --- | --- | --- | --- | --- | --- | --- |
| CC1(C)O[C@@H]2C[C@H]3[C@@H]4CCC5=CC(=O)C=C[C@]5(C)[C@@]4(F)[C@@H](O)C[C@]3(C)[C@]2(C(=O)CO)O1 [Kenalog, triamcinolone acetonide] | 1.13 | 1.00 | 0.25 | −1.56 | −1.56 | −2.56 | 1.25 | 1.13 | 0.50 | −1.50 | −1.13 | −2.25 | 1.13 | 0.75 | 0.25 | −0.88 | −1.50 | −2.00 | 1.13 units | 1.00 units | Edema, Difference (Kenalog-Doxy) ([1]; Combined Eyes): −0.88; Hemorrhage/Microaneurism, Difference (Kenalog-Doxy) ([1]; Combined Eyes): −0.63; Leakage, Difference (Kenalog-Doxy) ([1]; Combined Eyes): −1.81; Edema, Difference (Kenalog-Doxy) ([1]; Left Eye): −2.00; Hemorrhage/Microaneurism, Difference (Kenalog-Doxy) ([1]; Left Eye): −1.13; Leakage, Difference (Kenalog-Doxy) ([1]; Left Eye): −2.63; Edema, Difference (Kenalog-Doxy) ([1]; Right Eye): −0.63; Hemorrhage/Microaneurism, Difference (Kenalog-Doxy) ([1]; Right Eye): −1.25; Leakage, Difference (Kenalog-Doxy) ([1]; Right Eye): −1.50; Leakage ([1]; combined eyes): 0.25 units; Edema ([1]; left eye): 1.25 units; Hemorrhage/microaneurism ([1]; left eye): 1.13 units; Leakage ([1]; left eye): 0.50 units; Edema ([1]; right eye): 1.13 units; Hemorrhage/microaneurism ([1]; right eye): 0.75 units; Leakage ([1]; right eye): 0.25 units |
| C[C@H]1c2cccc(O)c2C(O)=C2C(=O)[C@]3(O)C(O)=C(C(N)=O)C(=O)[C@@H](N(C)C)[C@@H]3[C@@H](O)[C@@H]21 [Doxy, doxycycline] | 2.00 | 1.63 | 2.06 | −0.69 | −0.94 | −0.75 | 3.25 | 2.25 | 3.13 | 0.50 | 0.00 | 0.38 | 1.75 | 2 | 1.75 | −0.25 | −0.25 | −0.50 | 2.0 units | 1.63 units | pre-IL-1β cleavage (pre-IL-1β): correlate directly with increasing doxycycline concentrations; VEGF-mediated retinal vascular damage ([1]; as compared to the rabbits that received vehicle): reduced; Leakage ([1]; combined eyes): 2.06 units; Edema ([1]; left eye): 3.25 units; Hemorrhage/microaneurism ([1]; left eye): 2.25 units; Leakage ([1]; left eye): 3.13 units; Edema ([1]; right eye): 1.75 units; Hemorrhage/microaneurism ([1]; right eye): 2.0 units; Leakage ([1]; right eye): 1.75 units; Edema (diabetic retinopathy [2]): decrease; visual acuity (diabetic retinopathy [2]): improved; vascular leakage (diabetic retinopathy [2]; fluorescein angiography and scanning ocular fluorophotometry): Decreased; vascular leakage (diabetic retinopathy [3]): Decreased; Edema (diabetic retinopathy [3]; [4]): decrease; visual acuity (diabetic retinopathy [3]; [4]): improved |
